According to ChEMBL document CHEMBL6083277, “Discovery of SZJK-0421: A Novel Potent, Low Toxicity, Selective Second Generation of CRM1 Inhibitor for the Treatment of Both Hematological and Solid Tumors” (J Med Chem, 2024):
Activity calls are given as the source filed them. No cut-off for these calls is given here.

Key:
[1] = target: Ran-specific GTPase-activating protein (Homo sapiens, UniProt P43487); assay: Inhibition of RANBP1 nuclear export in human U2OS cells assessed as increase in fluorescence intensity at 100 uM measured for 15 mins by DAPI staining based fluorescence microscopic analysis; format: cell-based
Chain of Ran-specific GTPase-activating protein (P43487 whole entry): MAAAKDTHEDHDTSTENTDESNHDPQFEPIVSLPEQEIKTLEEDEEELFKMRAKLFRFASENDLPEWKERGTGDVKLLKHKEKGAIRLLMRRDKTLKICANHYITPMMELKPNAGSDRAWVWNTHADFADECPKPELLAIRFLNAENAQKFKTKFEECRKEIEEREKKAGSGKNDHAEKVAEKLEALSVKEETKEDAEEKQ

[2] = Toxicity in NOD-SCID mouse assessed as reduction in intact nuclei in tumor at 60 mg/kg, po measured every 2 days for 21 days by H and E staining based analysis; format: organism-based; settings: in vivo, 504 h, time 21 day
HCT-116 = assay: Antitumor activity against human HCT-116 cells xenografted in NOD-SCID mouse assessed as tumor growth inhibition at 60 mg/kg, po measured every 2 days for 21 days; format: functional, organism-based; settings: time 21.0 day
[3] = Tmax in male Sprague-Dawley rat at 30 mg/kg, po measured upto 30 hrs by LC-MS/MS analysis; format: ADME, organism-based; settings: in vivo
AN3-CA = assay: Antiproliferative activity against human AN3-CA cells assessed as inhibition of cell growth incubated for 72 hrs by celltiter-glo assay; format: functional, cell-based

- inhibition [1]: Active
- Tmax [3]: 18 min
Structure (SMILES): CONC(=O)/C(=C/n1cnc(-c2cc(C(F)(F)F)cc(C(F)(F)F)c2)n1)c1cncnc1
- Activity [2]: Non-toxic
- TGI (HCT-116): Active
- IC50 (AN3-CA): 1080 nM
